Data on one compound can be found in patent US20130014428A1, “METHODS OF MONITORING AND CONTROLLING THE WALNUT TWIG BEETLE, PITYOPHTHORUS JUGLANDIS” (The United States of America as Represented by the …, priority 2011, published 2013).

In one assay the test system is WTB. Put plainly: Trap height: 4-unit Lindgren funnel traps baited with X. Type of assay: in vivo, Pityophthorus juglandis. The following applies: for trap catches, female WTB / trap catches, male WTB: 15 to 80 mg/d. As to the method:
In another experiment, the effect of trap height on the flight response of WTB was also tested with 4-unit Lindgren funnel traps at Wolfskill Experimental Orchards from late summer to early fall. The traps were each baited with the commercial version of 3-methyl-2-buten-1-ol (15 to 80 mg/d, Contech pouch) and placed at 45, 123, 199, and 271 cm (hereafter 0.5, 1.2, 2.0, and 2.7 m) from the orchard floor (measured from the floor to the middle of the trap). Traps were attached to individual 3 m metal conduit poles by using a thick piece of wire threaded through a hole drilled in the conduit pole and the eyebolt attached to the top of the funnel trap. (See Seybold, S. J., Dallara, P. L., Hishinuma, S. M., and Flint, M. L. Detecting and Identifying the Walnut Twig Beetle: Monitoring Guidelines for the Invasive Vector of Thousand Cankers Disease of Walnut, University of California Agriculture and Natural Resources, Statewide Integrated Pest Management Program, 11 pp., Apr. 30, 2012.) Three blocks of treatments were installed, trap catches were collected daily during periods of high flight activity, and the treatments were re-randomized among the four trap stations within a block each time that the traps were emptied.
Statistical Analyses. Analyses of treatment effects for the tests of trap type were performed by using Friedman's non-parametric analysis of variance or a sign test, depending on the number of treatments. (See Zar, J. H. 2010. Biostatistical Analysis. 5th ed. Pearson Prentice Hall, Englewood Cliffs, N.J.) Analysis of treatment effects for the Rain•X experiment was performed by using a Wilcoxon paired sample test. Id. Multiple comparisons for experiments with more than two treatments were performed with an a posteriori Nemenyi test with experimentwise α=0.05. Id. In all cases, male and female WTB were analyzed separately. Proportions of female WTB responding to treatments were calculated and 95% confidence intervals determined by using the Clopper-Pearson method. Id.

For assay [1], the system named is walnut twig beetle (WTB), Pityophthorus juglandis. Kind of assay: Example 1 Field Test 4: flight response to X with and without racemic chalcogran. The class given is in vivo. The following applies: yellow sticky card traps, Davis CA. As to the method: Field Bioassays of Semiochemicals. To test the attractiveness of the various compounds of interest, some of the commercially available materials listed above were poured into 15 ml capped polyethylene bottles (Product #s A1-1050/002, A1-1055/002; Contech Enterprises Inc., Delta, British Columbia, Canada) and attached to yellow sticky card traps (Trécé, Adair, OK). In addition, synthesized (+) and (−) enantiomers of trans-conophthorin were tested in 400 μl polyethylene Eppendorf microcentrifuge tubes. Four field studies were conducted (Table 2) that tested the flight responses to: 3-methyl-2-buten-l-ol and related isomers (Field Test 1); 3-methyl-2-buten-l-ol with and without racemic trans-conophthorin (Field Test 2); 3-methyl-2-buten-l-ol with and without the purified enantiomers of trans-conophthorin (Field Test 3); and 3-methyl-2-buten-l-ol with and without racemic chalcogran (Field Test 4).
Statistical Analysis. Field Tests 1-4 were each analyzed for treatment effect by using Friedman's non-parametric analysis of variance. (See Zar, J. H. 2010. Biostatistical Analysis, 5th Ed. Pearson Prentice Hall, New Jersey). Males and females were subjected to separate analyses. All treatments within experiments yielding a significant treatment effect were compared by using an a posteriori Nemenyi test (Zar 2010) with experimentwise α=0.05. Sex ratios of responding WTB were determined using Cochran's method for unbiased sampling (See Cochran, W. G. 1977. Sampling Techniques, 3rd ed. John Wiley, New York), with 95% confidence intervals calculated by using the Clopper-Pearson method. (See Zar, J. H. 2010. Biostatistical Analysis, 5th Ed. Pearson Prentice Hall, New Jersey).

Setting [2] is: about one month late summer, N=13.

Take `CC(C)=CCO` [X, 3-methyl-2-buten-1-ol]: the “proportion of females responding” value was determined as 0.76 with WTB (0.5 m trap); 0.77 in the assay with WTB (1.2 m trap); 0.77 in the assay with WTB (2.0 m trap); 0.77 with WTB (2.7 m trap); 0.69 in assay [1]. For the same compound, the “trap catches, female WTB” value in the assay on WTB (0.5 m trap) is 392; in the assay with WTB (1.2 m trap), 469; in the assay on WTB (2.0 m trap) it was 875; in the assay with WTB (2.7 m trap) it was 757; in assay [1] (setting [2]), 94. For the same compound, the “trap catches, male WTB” value in the assay on WTB (0.5 m trap) is given as 125; with WTB (1.2 m trap), 139; in the assay on WTB (2.0 m trap), 265; in the assay with WTB (2.7 m trap), 225; in assay [1] (setting [2]), 43.
